US9056875B2, “Substituted pyrazolo[3′,4′:4,5]thieno[2,3-C]pyridazin-3-amine analogs as positive allosteric modulators of the muscarinic acetylcholine receptor M4” (Vanderbilt University, priority 2012, dated 2015)

How the values were obtained:
[1] = patients treated with AChE inhibitor; cited from earlier work
[2] = Alzheimer's disease patients; cited from earlier work
[3] = cited from earlier work
mAChR rM4 = biological target: T1, mAChR rM4 (Rattus norvegicus, UniProt P08485); test: mAChR rM4 cell-based functional assay (calcium mobilization, potentiation of EC20 acetylcholine response)
T1 construct: expressed in transfected cells
T1 sequence (P08485 1-478): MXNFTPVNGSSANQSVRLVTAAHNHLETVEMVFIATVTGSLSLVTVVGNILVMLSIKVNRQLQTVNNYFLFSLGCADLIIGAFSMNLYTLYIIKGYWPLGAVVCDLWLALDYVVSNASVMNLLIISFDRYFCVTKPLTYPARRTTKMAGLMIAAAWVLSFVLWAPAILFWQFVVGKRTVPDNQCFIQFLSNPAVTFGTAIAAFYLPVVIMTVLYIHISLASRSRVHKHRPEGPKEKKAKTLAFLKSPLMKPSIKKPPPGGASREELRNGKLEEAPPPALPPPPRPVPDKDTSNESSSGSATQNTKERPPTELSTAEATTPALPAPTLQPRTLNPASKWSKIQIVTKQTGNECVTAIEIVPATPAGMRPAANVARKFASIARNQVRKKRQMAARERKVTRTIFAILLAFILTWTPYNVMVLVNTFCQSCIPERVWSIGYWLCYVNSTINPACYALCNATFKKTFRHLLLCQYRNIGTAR
Excerpt: Chinese hamster ovary (CHO-K1) cells stably expressing rat (r)M1 were purchased from the American Type Culture Collection and cultured according to their indicated protocol. CHO cells stably expressing human (h)M2, hM3, and hM5 were described previously (Levey A I, et al., (1991) J Neurosci 11:3218-3226.); hM1 and hM4 cDNAs were purchased from Missouri S&T cDNA Resource; rM4 cDNA was provided by T. I. Bonner (National Institutes of Health, Bethesda, Md.). rM2 and rM3 were cloned from a rat brain cDNA library and sequence verified. hM1, rM2, rM3, hM4, and rM4 cDNAs were used to stably transfect CHO-K1 cells purchased from the American Type Culture Collection using Lipofectamine® 2000. To make stable rM2, hM2, rM3, hM4, and rM4 cell lines for use in calcium mobilization assays, these cells also were stably transfected with a chimeric G-protein (Gqi5) (provided by B. R. Conklin, University of California, San Francisco) using Lipofectamine® 2000. rM1, hM1, rM3, hM3, rM5, and hM5 cells were grown in Ham's F-12 medium containing 10% heat-inactivated fetal bovine serum (FBS), 20 mM HEPES, and 50 μg/mL G418 sulfate. rM2-Gqi5, hM2-Gqi5, and hM4-Gqi5 cells were grown in the same medium also containing 500 μg/mL hygromycin B. Stable rM4-Gqi5 cells were grown in DMEM containing 10% heat-inactivated FBS, 20 mM HEPES, 400 μg/mL G418 sulfate, and 500 μg/mL Hygromycin B.
For high throughput measurement of agonist-evoked increases in intracellular calcium, CHO-K1 cells stably expressing the target muscarinic receptor were plated in growth medium lacking G418 and hygromycin at 15,000 cells/20 μL/well in Greiner 384-well black-walled, tissue culture (TC)-treated, clear-bottom plates (VWR). Cells were incubated overnight at 37° C. and 5% CO2. The next day, cells were washed using an ELX 405 (BioTek) with four washes (80 μL) of assay buffer then aspirated to 20 μL. Next, 20 μL of 16 μM Fluo-4/acetoxymethyl ester (Invitrogen, Carlsbad, Calif.) prepared as a 2.3 mM stock in DMSO and mixed in a 1:1 ratio with 10% (w/v) Pluronic F-127 and diluted in assay buffer was added to the wells and the cell plates were incubated for […] at 37° C. and 5% CO2. Dye was removed by washing with the ELX 405 (four 80 μL washes of assay buffer) then aspirated to 20 μL. Compound master plates were formatted in an 11 point CRC format (1:3 dilutions) in 100% DMSO with a starting concentration of 10 mM using the BRAVO liquid handler (Agilent). Test compound CRCs were then transferred to daughter plates (240 nL) using the Echo acoustic plate reformatter (Labcyte, Sunnyvale, Calif.) and then diluted into assay buffer (40 μL) to a 2× stock using a Thermo Fisher Combi (Thermo Fisher Scientific, Waltham, Mass.).
Calcium flux was measured using the Functional Drug Screening System (FDSS) 6000 (Hamamatsu Corporation, Tokyo, Japan) as an increase in the fluorescent static ratio. Compounds were applied to cells (20 μL, 2×) using the automated system of the FDSS 6000 at 4 s into the 300 s protocol and the data were collected at 1 Hz. At 144 s into the 300 s protocol, 10 μL of an EC20 concentration of the muscarinic receptor agonist acetylcholine was added (5×), followed by the addition of 12 μL an EC80 concentration of acetylcholine at the 230 s time point (5×). Agonist activity was analyzed as a concentration-dependent increase in calcium mobilization upon compound addition. Positive allosteric modulator activity was analyzed as a concentration-dependent increase in the EC20 acetylcholine response. Antagonist activity was analyzed as a concentration-dependent decrease in the EC80 acetylcholine response. Concentration-response curves were generated using a four-parameter logistical equation in XLfit™ curve fitting software (IDBS, Bridgewater, N.J.) for Excel (Microsoft, Redmond, Wash.) or Prism (GraphPad Software, Inc., San Diego, Calif.). […]

**Q.** Which “hepatotoxicity with elevated liver transaminases observed in patients” value [1] does the source give for `Nc1c2c(nc3ccccc13)CCCC2` [tacrine] here?
**A.** about 30 % of patients

**Q.** With `CCCCCCOc1nsnc1C1=CCCN(C)C1` [xanomeline] as the compound, how does the “psychotic behavioral symptoms such as delusions, suspiciousness, vocal outbursts, and hallucinations” value [2] read?
**A.** reduce psychotic behavioral symptoms

**Q.** What about the “treatment induced side effects” value [2] of the same compound?
**A.** gastrointestinal effects

**Q.** What about the catalepsy ([3]; animal models) of the same compound?
**A.** without causing catalepsy

**Q.** And the “activity in animal models” value ([3]; compared with known antipsychotic drugs)?
**A.** active in animal models with similar profiles to known antipsychotic drugs

**Q.** Which results are given for `Cc1nnc2sc3c(NCC4CCN(C(=O)OC(C)(C)C)CC4)nn(C)c3c2c1C` [Compound 21, tert-butyl 4-(((1,7,8-trimethyl-1H-pyrazolo[3′,4′:4,5]thieno[2,3-c]pyridazin-3-yl)amino)methyl)piperidine-1-carboxylate]?
**A.** Emax at 30 µM (mAChR rM4; %ACh maximum at 30 μM): 42%; EC50 (mAChR rM4; rM4-transfected CHO-K1 cells, positive allosteric modulation of EC20 ACh response, read-out: EC50): 710 nM
